Tests used:
Format in all cases: in vivo
China jute (Ab) [1] = assay: Test Example 7: crop plant selectivity by upland field soil treatment (corn), herbicidal effects; set-up: scale not given here; details: 21st day after application
Method in brief: (§1)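 Sand-filled pot; corn plus weeds sown, soil-covered. Post-application greenhouse culture. Herbicidal effect/phytotoxicity rated day 21 per standard scale.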

slender amaranth (Am) [2] = assay: as above; set-up: scale not given here; details: 21st day after application
Method in brief: as §1

green foxtail (Se) = assay: as above; set-up: scale not given here; details: 21st day after application
Method in brief: as §1

pale smartweed (Po) [3] = assay: as above; set-up: scale not given here; details: 21st day after application
Method in brief: as §1

[4] = system: common lambsquarters (Ch); assay: as above; set-up: scale not given here; details: 21st day after application
Method in brief: as §1

wheat (Tr) = assay: Test Example 5: crop plant selectivity by upland field soil treatment (wheat), phytotoxicity; set-up: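 grade of crop injury; 5 = at least 90%; 4 = 70 to 90%; 3 = 50 to 70%; 2 = 30 to 50%; 1 = 10 to 30%; 0 = under 10%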; details: dose 6.3 g ai/10a, 21st day after application
Method in brief: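 Pre-emergence soil treatment, sand-filled pots, seeds covered with soil; greenhouse culture; visual scoring of weed control and wheat injury at day 21 post-application.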

China jute (Ab) [5] = assay: Test Example 9: crop plant selectivity by upland field foliage treatment (wheat), herbicidal effects; set-up: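 grade of growth control; 5 = at least 90%; 4 = 70 to 90%; 3 = 50 to 70%; 2 = 30 to 50%; 1 = 10 to 30%; 0 = under 10%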; details: dose 1.6 g ai/10a, 14th day after treatment
Method in brief: (§2)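 Seeds of wheat, pale smartweed, slender amaranth, common lambsquarters and China jute are sown in sand and grown 2 weeks under glass. Foliage is then treated, culture resumes in the greenhouse, and damage is graded on the 14th day.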

slender amaranth (Am) [6] = assay: as above; set-up: scale not given here; details: dose 1.6 g ai/10a, 14th day after treatment
Method in brief: as §2

pale smartweed (Po) [7] = assay: as above; set-up: scale not given here; details: dose 1.6 g ai/10a, 14th day after treatment
Method in brief: as §2

[8] = system: common lambsquarters (Ch); assay: as above; set-up: scale not given here; details: dose 1.6 g ai/10a, 14th day after treatment
Method in brief: as §2

slender amaranth (Am) [9] = assay: Test Example 11: crop plant selectivity by upland field foliage treatment (corn), herbicidal effects; set-up: scale not given here; details: dose 1.6 g ai/10a
Method in brief: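 Corn and the weed species were sown together in sand-filled pots and grown in a greenhouse for 2 weeks before foliar treatment. Herbicidal effect was scored on day 14 after treatment against a graded standard scale, with corn phytotoxicity scored alongside.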

[10] = system: common lambsquarters (Ch); assay: Test Example 10: crop plant selectivity by upland field foliage treatment (soybean), herbicidal effects; details: dose 1.6 g ai/10a, 14th day after treatment
Protocol: (Test on Crop Plant Selectivity by Upland Field Foliage Treatment)
In a plastic pot (surface area: 600 cm^2) filled with sand, soybean (Gl), pale smartweed (Po), slender amaranth (Am), common lambsquarters (Ch) and China jute (Ab) were sown and cultured in a green house for 2 weeks. […] The plants were then cultured in a green house, and the evaluation of the herbicidal effects and phytotoxicity was conducted on the 14th day after the treatment in accordance with the standards as identified in Table 47.

[11] = upland field foliage treatment (corn test), 14th day after treatment

SMILES | Herbicidal effects Ab (China jute (Ab) [1]; dose 6.3 g ai/10a) | Herbicidal effects Am (slender amaranth (Am) [2]; dose 6.3 g ai/10a) | Herbicidal effects Se (green foxtail (Se); dose 6.3 g ai/10a) | Herbicidal effects Po (pale smartweed (Po) [3]; dose 6.3 g ai/10a) | Herbicidal effects Ch ([4]; dose 6.3 g ai/10a) | Phytotoxicity Tr (wheat (Tr)) | Herbicidal effects Ab (China jute (Ab) [5]) | Herbicidal effects Am (slender amaranth (Am) [6]) | Herbicidal effects Po (pale smartweed (Po) [7]) | Herbicidal effects Ch [8] | Herbicidal effects Am (slender amaranth (Am) [9]; [11]) | Herbicidal effects Ch [10] | Herbicidal effects Am (slender amaranth (Am) [9]; slender amaranth, foliage treatment, evaluated on 14th day after treatment, index per Table 47) | Herbicidal effects Ab (China jute (Ab) [1]; dose 1.6 g ai/10a) | Herbicidal effects Am (slender amaranth (Am) [2]; dose 1.6 g ai/10a) | Herbicidal effects Se (green foxtail (Se); dose 1.6 g ai/10a) | Herbicidal effects Po (pale smartweed (Po) [3]; dose 1.6 g ai/10a) | Herbicidal effects Ch ([4]; dose 1.6 g ai/10a)
Cn1c(C(F)(F)F)ccc(-c2cc(OCCCl)c(Cl)cc2F)c1=O [1-171] | 5 | 5 | 5 | 5 | 5 | 1 | 5 | 5 | 5 | 5 | 5 | 5 | – | – | – | – | – | –
CCON=Cc1cc(-c2ccc(C(F)(F)F)n(C)c2=O)c(F)cc1Cl [Compound 1-187] | 5 | 5 | 5 | 5 | 5 | 1 | 5 | 5 | 5 | 5 | 5 | 5 | – | – | – | – | – | –
CSCOc1cc(-c2ccc(C(F)(F)F)n(C)c2=O)c(F)cc1Cl [Compound 1-208] | 5 | 5 | 5 | 4 | 5 | 1 | 5 | 5 | 5 | 5 | 5 | 5 | – | – | – | – | – | –
C=CCN1C(=O)COc2cc(Cl)c(-c3ccc(C(F)(F)F)n(C)c3=O)cc21 [Compound 2-26] | 5 | 5 | 5 | 5 | 5 | 1 | 5 | 5 | 5 | 5 | 5 | – | – | – | – | – | – | –
CCCc1cc2c(-c3ccc(C(F)(F)F)n(C)c3=O)c(F)cc(Cl)c2o1 [Compound 4-3] | 5 | 5 | 5 | 5 | 5 | 2 | 5 | 5 | 5 | 5 | 5 | 5 | – | – | – | – | – | –
CCc1cc2c(Cl)cc(F)c(-c3ccc(C(F)(F)F)n(C)c3=O)c2o1 [Compound 5-2] | 5 | 5 | 5 | 5 | 5 | 1 | 5 | 5 | 5 | 5 | – | 5 | 5 | – | – | – | – | –
Cn1c(C(F)(F)F)ccc(-c2cc(C#N)c(Cl)cc2F)c1=O [Compound No. 1-119, 3-(4-chloro-5-cyano-2-fluorophenyl)-1-methyl-6-trifluoromethyl-2(1H)-pyridone] | 5 | 5 | 5 | 5 | 5 | – | 4 | 5 | 5 | 5 | 5 | 5 | – | – | – | – | – | –
CCCC(=O)c1cc(-c2ccc(C(F)(F)F)n(C)c2=O)c(F)cc1Cl [Compound No. 1-194, 3-[4-chloro-2-fluoro-5-(1-oxobutyl)phenyl]-1-methyl-6-trifluoromethyl-2(1H)-pyridone] | 5 | 5 | 5 | 5 | 5 | 1 | 5 | 5 | 5 | 5 | 5 | – | – | – | – | – | – | –
Cn1c(C(F)(F)F)ccc(-c2c(F)cc(Cl)c3oc(CO)cc23)c1=O [Compound No. 4-5, 3-(7-chloro-5-fluoro-2-hydroxymethylbenzofuran-4-yl)-1-methyl-6-trifluoromethyl-2-(1H)-pyridone] | 5 | 5 | 5 | 5 | 5 | 1 | 5 | 5 | 5 | 5 | 5 | – | – | – | – | – | – | –
Cn1c(C(F)(F)F)ccc(-c2c(F)cc(Cl)c3occc23)c1=O [Compound No. 4-28, 3-(7-chloro-5-fluorobenzofuran-4-yl)-1-methyl-6-trifluoromethyl-2-(1H)-pyridone] | – | – | – | – | – | 2 | 5 | 5 | 5 | 5 | 5 | – | – | 5 | 5 | 5 | 5 | 5

Source: patent publication US6472348B1, “Pyridone derivatives and herbicides” (Kumiai Chemical Industry Co., Ltd., priority 1996, dated 2002)
